Reference: patent US20070185172A1, “Organic compounds” (priority 2004, published 2007)

Key:
[1] = tested on: TNF-alpha synthesis and release in human macrophage cell line U937; assay: Inhibition of TNF-alpha synthesis and release in LPS-stimulated differentiated U937 cells; assay type: cell-based; conditions: U-937, PMA-differentiated U937 cells, 10 ng/ml LPS, 24 hours, TNFα by sandwich ELISA
Description: Inhibition of TNF-alpha synthesis and release may be measured by the following assay:
Human macrophage cell line U937 is obtained from American Type Culture Collection (Rockville Md.) and cultured in RPMI 1640 (Gibco UK) supplemented with 10% FCS (Gibco UK). Cell density is adjusted to 4×10^5 cells/ml and the cells are differentiated by adding phorbal myristate acetate (PMA, 20 ng/ml) for 4 hours. The PMA is removed by washing and the adherent cells are incubated for a further 48 hours at 37° C. in a humidified incubator with 5% CO2. Differentiated U937 cells are removed using cell dissociation buffer (Gibco UK) and the cell density is adjusted to 1×10^6 cells/ml. 100 μl of the cell suspension is placed in 96 well culture plates and 50 μl of either medium or compound at the appropriate concentration in dimethylsulfoxide are added. After a preincubation of 20 minutes at 37° C., the cells are stimulated with 10 ng/ml lipopolysaccharide (LPS, Sigma) and the supernatants are harvested after 24 hours of incubation at 37° C. in a humidified incubator with 5% CO2. Concentration of TNFα in the supernatants is determined by sandwich ELISA using two monoclonal antibodies recognising different epitopes of the cytokine (Pharmingen UK). Binding of the second antibody is analysed by stepwise incubation with streptavidin alkaline phosphatase conjugate (Sigma UK) and 4-nitrophenylphosphate disodium salt. Optical density is measured at 405 nm and cytokine concentration calculated based on results from serial diluations of standard recombinant TNFα. Curves are fitted and IC50 values calculated using Origin™ software.

Recombinant human GR = target: T1, Recombinant human GR (Homo sapiens, UniProt P04150); assay: Glucocorticoid receptor binding, fluorescence polarisation with Fluormone-GS1; conditions: Fluormone-GS1 ligand, 1 hr at room temperature, Ki calculated from IC50 using the Cheng-Prussoff equation
T1 construct: purchased Panvera (Madison, Wis., USA); host or cells: baculovirus-infected insect Sf-9 cells
T1 sequence (P04150 1-777): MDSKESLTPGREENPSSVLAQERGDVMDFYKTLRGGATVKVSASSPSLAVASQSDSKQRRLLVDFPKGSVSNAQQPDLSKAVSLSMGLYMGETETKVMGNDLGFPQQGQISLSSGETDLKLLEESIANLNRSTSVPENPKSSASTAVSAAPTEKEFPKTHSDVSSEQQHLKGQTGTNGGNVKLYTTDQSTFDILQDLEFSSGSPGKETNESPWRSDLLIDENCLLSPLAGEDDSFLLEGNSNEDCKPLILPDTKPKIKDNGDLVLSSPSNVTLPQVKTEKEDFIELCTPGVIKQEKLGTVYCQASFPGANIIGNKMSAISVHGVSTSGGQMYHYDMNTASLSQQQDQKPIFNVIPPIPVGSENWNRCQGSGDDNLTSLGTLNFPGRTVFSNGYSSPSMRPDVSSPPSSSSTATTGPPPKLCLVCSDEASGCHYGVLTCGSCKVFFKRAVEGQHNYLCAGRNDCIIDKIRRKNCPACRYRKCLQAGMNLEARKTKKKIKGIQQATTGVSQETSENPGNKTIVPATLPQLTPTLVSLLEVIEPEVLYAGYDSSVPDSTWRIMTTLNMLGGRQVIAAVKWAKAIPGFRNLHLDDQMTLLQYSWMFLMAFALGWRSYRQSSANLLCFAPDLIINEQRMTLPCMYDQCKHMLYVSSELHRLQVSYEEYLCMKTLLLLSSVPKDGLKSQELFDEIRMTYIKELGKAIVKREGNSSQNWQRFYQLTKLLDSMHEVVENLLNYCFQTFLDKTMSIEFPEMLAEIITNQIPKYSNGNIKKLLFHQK
Description: Binding to the glucocorticoid receptor may be measured in the following assay:
Recombinant human GR expressed in baculovirus-infected insect Sf-9 cells is obtained from Panvera (Madison, Wis., USA), as is GR assay buffer and the proprietary fluorescent ligand Fluormone™-GS1 (200 nM methanol solution). The assay is conducted in 384 well plates by sequential addition of a serially diluted dimethylsulfoxide solution of test compound in water (2 μl), Fluormone™-GS1 (2.2 nM in GR assay buffer, 10 μl) and GR solution (8.8 nM in GR assay buffer, 10 μl). The assay is incubated in the dark at room temperature for 1 hr, prior to fluorescence polarisation measurement using an analyst multiwell instrument with 485 nm excitation and 530 nm emission filters. The concentration of test compound resulting in half-maximum shift in polarisation gives the IC50. Curves are fitted using Origin™ software and Ki values were calculated using the Cheng-Prussoff equation. Compounds of Examples 1, 2, 3, and 4 have Ki values of 0.5, 1.4, 0.4 and 0.2 nM respectively in this assay.

| SMILES | IC50 [1] | Ki (Recombinant human GR) |
| --- | --- | --- |
| CCCN1C[C@@H]2CC3C4CCC5=CC(=O)C=C[C@]5(C)C4[C@@H](O)C[C@]3(C)[C@]2(C(=O)CO)O1 (stereo partly drawn) [Example 1, (4aR,5S,6aS,6bR,9aS)-5-Hydroxy-6b-(2-hydroxy-acetyl)-4a,6a-dimethyl-8-propyl-4a,4b,5,6,6a,6b,8,9,9a,10,10a,10b,11,12-tetradecahydro-7-oxa-8-pentaleno[2,1-a]phenanthren-2-one] | 1.16 nM | 0.5 nM |
| CN1C[C@@H]2CC3C4CCC5=CC(=O)C=C[C@]5(C)C4[C@@H](O)C[C@]3(C)[C@]2(C(=O)CO)O1 (stereo partly drawn) [Example 2, (4aR,5S,6aS,6bR,9aS)-5-Hydroxy-6b-(2-hydroxy-acetyl)-4a,6a,8-trimethyl-4a,4b,5,6,6a,6b, 8,9,9a,10a,10b,11,12-tetradecahydro-7-oxa-8-aza-pentaleno[2,1-a]phenanthren-2-one] | 4.95 nM | 1.4 nM |
| CCCCN1C[C@@H]2CC3C4CCC5=CC(=O)C=C[C@]5(C)C4[C@@H](O)C[C@]3(C)[C@]2(C(=O)CO)O1 (stereo partly drawn) [Example 3, (4aR,5S,6aS,6bR,9aS)-8-Butyl-5-hydroxy-6b-(2-hydroxy-acetyl)-4a,6a-dimethyl-4a,4b,5,6,6a,6b,8,9,9a,10,10a,10b,11,12-tetradecahydro-7-oxa-8-aza-pentaleno[2,1-a]phenanthren-2-one] | 0.89 nM | 0.4 nM |
| C[C@]12C=CC(=O)C=C1CCC1C2[C@@H](O)C[C@@]2(C)C1C[C@H]1CN(C3CCCCC3)O[C@]12C(=O)CO (stereo partly drawn) [Example 4, (4aR,5S,6aS,6bR,9aS)-8-Cyclohexyl-5-hydroxy-6b-(2-hydroxy-acetyl)-4a,6a-dimethyl-4a,4b, 5,6,6a,6b,8,9,9a,10,10a,10b,11,12-tetradecahydro-7-oxa-8-aza-pentaleno[2,1-a]-phenan-thren-2-one] | 3.57 nM | 0.2 nM |
